Test results from patent US20070213402A1, “Compounds which interact with the thyroid hormone receptor for the treatment of fibrotic disease” (priority 1998, published 2007).

Columns and labels:
[1] = tested on: collagenase I promoter; experiment: Experiment 1: collagenase I promoter (-73/+63)-luciferase in CV1 cells transfected with pSG5ARF (androgen receptor); format: cell-based, African Green Monkey; details: for % control (AR): Blank = 100
Excerpt: (§1) Two plasmid constructs were introduced by standard calcium phosphate precipitation of DNA followed by glycerol shock (Ausubel F M, Brent R, Kingston D D, Moore J G et al Current protocols in molecular biology 1994 Greene Publishing Associates/Wiley-Interscience, New York, N.Y.) using a transformed African Green Monkey kidney cell line (CV1) (Schneikert J, Peterziel H, Defossez P-A, Klocker H, de Launoit Y and Cato A C B Androgen receptor-Ets protein interaction is a novel mechanism for steroid hormone-mediated down-modulation of matrix metalloproteinase expression, Journal of Biological Chemistry. Vol 271(39) (pp 23907-23913), 1996).
(§2) Accordingly, the following two plasmids were included into CV1 cells described above — • (a) Either of GR1 or pSG5ARF containing glucocorticoid or androgen receptor (AR) respectively, both at 2 ug per 5×10^5 cells, driven by the Rous sarcoma virus promoter, and • (b) a plasmid containing the −73/+63 portion of the collagenase I promoter linked to luciferase gene at 8 ug per 5×10^5 cells.
(§3) CPII was compound II above, clobuzarit.

[2] = tested on: NFκB; experiment: Experiment 3: NFκB-driven 3-EnhTK-Luc reporter in CV1 cells with GR1; format: cell-based, African Green Monkey
Excerpt: as §1
This experiment was intended to show the effect of compounds I on a mediator of the immune response, nuclear factor—κB (NF-κB).
The following two plasmids were included into CV1 cells described above— • (a) GR1 as described above at 2 ug per 5×10^5 cells, and • (b) a plasmid designated 3-EnhTK-Luc (at 0.5 ug per 5×10^5 cells) which contains a transcription site that is activated by NFκB.
The blank represented the inclusion of these two plasmids alone; the relatively high value was caused by (i) the high level of serum in the culture, and (ii) the associated stress that the cells underwent during the […]—both of which upregulate NFκB. There was also a related relatively low activation of TNF (at 4 ng/ml) above a serum containing blank in the experiment. TNF was tumour necrosis factor alpha.

[3] = tested on: collagenase I promoter; experiment: Experiment 1: collagenase I promoter (-73/+63)-luciferase in CV1 cells transfected with GR1 (glucocorticoid receptor); format: cell-based, African Green Monkey; details: for % control (GR1): Blank = 100
Excerpt: as §1, §2, §3

[4] = tested on: collagenase I promoter; experiment: Experiment 1: collagenase I promoter (-73/+63)-luciferase in CV1 cells, no receptor plasmid (Empty); format: cell-based, African Green Monkey; details: no receptor, substance added alone
Excerpt: as §1, §2, §3

[5] = tested on: collagenase (MMP-1) promoter; experiment: Experiment 4.3: collagenase (MMP-1) promoter-luciferase in MCF-7 cells with transfected chick thyroid hormone receptor; format: cell-based, human; details: MCF-7 + chick thyroid hormone receptor, substance added alone
Description: (§4) These experiments were intended to identify the receptor through which compounds I might be acting to block collagenase promoter activity.
(§5) Transfection procedure hereinbefore described with CV1 cells was repeated using MCF-7 mammary breast cancer cells derived from pleural effusion from a breast cancer patient. Additionally, each experiment included transfection of a plasmid (at 8 ug per 5×10^5 cells) containing the −517/+63 section of the collagenase (MMP-1) promoter linked to the luciferase gene. TPA was used as above to stimulate activity of the collagenase promoter resulting in luciferase production. Compound II or 3,3,5-triiodo-L-thyronine (T3) was included (both at 10^−8M), the latter being a known ligand for the thyroid hormone receptor.

[6] = tested on: collagenase (MMP-1) promoter; experiment: Experiment 4.2: collagenase (MMP-1) promoter-luciferase in MCF-7 cells with antisense construct for the thyroid receptor; format: cell-based, human; details: MCF-7 + thyroid receptor antisense, substance added alone
Description: as §4, §5
Experiment 4.2. The procedure of Experiment 4.1 was repeated except that a second plasmid, containing 662 bp antisense construct for the thyroid receptor (at 8 ug per 5×10^5 cells) was additionally transfected.

[7] = tested on: collagenase (MMP-1) promoter; experiment: Experiment 4.1: collagenase (MMP-1) promoter (-517/+63)-luciferase in MCF-7 cells, endogenous thyroid hormone receptors; format: cell-based, human; details: MCF-7, endogenous thyroid hormone receptors, substance added alone
Description: as §4, §5
Experiment 4.1. As MCF-7 cells express endogenous thyroid hormone receptors, only the collagenase promoter plasmid (at 8 ug per 5×10^5 cells) was transfected into the MCF-7 cells.

[8] = substance added with TPA 75 ng/ml, DHT 10^-7M
[9] = substance added with TPA 75 ng/ml, Dex 10^-7M
[10] = substance added alone, TPA 75 ng/ml

## C[C@]12CCC(=O)C[C@@H]1CC[C@@H]1[C@@H]2CC[C@]2(C)[C@@H](O)CC[C@@H]12 [DHT, dihydroxytestosterone, reference compound]
[1]; [8]
  Raw counts (AR): 3711 counts
  % control (AR): 139%
[1]; TPA-stimulated, androgen receptor
  collagenase I activation, in words (AR): able to down regulate this activation

## C[C@@H]1C[C@H]2[C@@H]3CCC4=CC(=O)C=C[C@]4(C)[C@@]3(F)[C@@H](O)C[C@]2(C)[C@@]1(O)C(=O)CO [Dex, dexamethazone, reference compound]
[2]; substance added with TNF 4 ng/ml
  Raw Counts: 18525 counts
[2]; substance added with TNF 4 ng/ml, Blank = 100
  % Control: 31%
[2]; with TNF
  inhibitory effect on NFκB transcription, in words: marked effect
[3]; [9]
  Raw counts (GR1): 10981 counts
  % control (GR1): 86%
[3]; TPA-stimulated, glucocorticoid receptor
  collagenase I activation, in words (GR1): able to down regulate this activation

## CCCCCCCCCCCCCC(=O)O[C@@H]1[C@@H](C)[C@@]2(O)[C@@H](C=C(CO)C[C@]3(O)C(=O)C(C)=C[C@@H]23)[C@@H]2C(C)(C)[C@]12OC(C)=O [TPA, 12-O—tetradecanoylphorbol-13-acetate, reference compound]
[4]; luciferase, TPA 75 ng/ml
  Raw counts (Empty): 5407 counts
[4]; Blank = 100
  % control (Empty): 225%
[5]; Blank = 100
  % Control: 528%
[5]; CPII 10^-8M
  Raw Counts: 11528 counts
[6]; Blank = 100
  % Control: 341.2%
[6]; CPII 10^-8M
  Raw Counts: 4975 counts
[7]; Blank = 100
  % Control: 1174.3%
[7]; CPII 10^-8M
  Raw Counts: 147665 counts
[3]; substance added alone
  % control (GR1): 448%
[3]; [10]
  Raw counts (GR1): 57519 counts
[1]; substance added alone
  % control (AR): 436%
[1]; [10]
  Raw counts (AR): 11639 counts
